How the values were obtained:
[1] = tested on: Cucumber (variety: SAGAMI HANPAKU); experiment: Phytotoxicity studied in Test Example 2; assay type: in vivo; conditions: 500 ppm, foliage spray
Protocol: Cucumber (variety: SAGAMI HANPAKU) was cultivated in a plastic pot of 4 cm diameter. A diluted solution of an active compound of the prescribed concentration, prepared in a similar manner as in the above-mentioned Test Example 1, was sprayed to seedlings reached to cotyledon in an amount of 6 ml per 3 pots. One day after the spraying, a suspension of spores, prepared by washing spores of Sphaerotheca fuliginea taken from previously infected cucumber into distilled water, was inoculated to the plant to be treated by spraying (once) and infected in a green house. Seven days after the inoculation, the contraction rate per pot was classified and evaluated to obtain the controlling value (%). Phytotoxicity was also studied at the same time. This test is an average of the results of 1 section 3 pots.

[2] = tested on: Paddy rice (variety: KOSHIHIKARI); conditions: in vivo
Tomato (variety: REGINA) = conditions: in vivo
[3] = tested on: nursery stock (variety: OREGON SUPER DELICIOUS) leaves; experiment: Phytotoxicity studied in Test Example 4; assay type: in vivo; conditions: 500 ppm, spray on detached leaves of nursery stock
Protocol: A nursery stock (variety: OREGON SUPER DELICIOUS) was cultivated in a plastic pot of 30 cm diameter and its leaves, which had reached at perfect extension stage, were detached from the petiole, were cultivated under hydroponic condition by using a water-holding carrier. After that, a diluted solution of an active compound of the prescribed concentration, prepared in a similar manner as in the above-mentioned Test Example 1, was sprayed to the leaves in an amount of 6 ml per 3 leaves. One day after the spraying, a suspension of spores of artificially cultured Alternaria mali was inoculated to the leaves by spraying (once) and infected by transferring them into a moisturizing box and keeping at 20° C. Four days after the inoculation, the contraction rate per pot was classified and evaluated according to the following standard and the controlling value (%) was obtained. Phytotoxicity was also studied at the same time. This test is an average of the results of 1 section 3 leaves.

| SMILES | Phytotoxicity [1] | Phytotoxicity [2] | Phytotoxicity [3] | other results |
| --- | --- | --- | --- | --- |
| Fc1ccc(Cc2c(Cl)ncnc2N2CCCC2)cc1F [Compound 1-86] | No phytotoxicity was observed | No phytotoxicity was observed | – | – |
| Clc1nc(-c2ccccn2)nc(N2CCCC2)c1Cc1ccccc1 [Compound 1-238] | – | No phytotoxicity was observed | – | Phytotoxicity (Tomato (variety: REGINA)): No phytotoxicity was observed |
| Clc1ncnc(N2CC=CC2)c1Cc1ccccc1 [Compound 1-33] | – | No phytotoxicity was observed | No phytotoxicity was observed | – |
| Fc1cccc(Cc2c(Cl)ncnc2N2CCCC2)c1 [Compound 1-56, 4-Chloro-5-(3-fluorobenzyl)-6-pyrrolidin-1-yl-pyrimidine] | No phytotoxicity was observed | No phytotoxicity was observed | No phytotoxicity was observed | – |
| CS(=O)(=O)c1nc(Cl)c(Cc2ccccc2)c(N2CCCC2)n1 | – | – | – | melting point: 136 to 138 °C |
| Clc1nc(-c2cnccn2)nc(N2CCCC2)c1Cc1ccccc1 [Compound 1-311] | – | – | No phytotoxicity was observed | – |
| Clc1ncnc(N2CCSC2)c1Cc1ccccc1 [Compound 1-37] | – | No phytotoxicity was observed | – | – |
| CC1CCCN1c1ncnc(Cl)c1Cc1ccc(F)c(F)c1 (stereo not shown) [Compound 1-16] | No phytotoxicity was observed | No phytotoxicity was observed | – | – |
| Fc1ccc(Cc2c(Cl)ncnc2N2CCCC2)cc1 [Compound 1-68] | No phytotoxicity was observed | No phytotoxicity was observed | – | – |
| Clc1cccc(Cc2c(Cl)ncnc2N2CCCC2)c1 [Compound 1-57] | No phytotoxicity was observed | No phytotoxicity was observed | – | – |
| Clc1nc(-c2ccncc2)nc(N2CCCC2)c1Cc1ccccc1 [Compound 1-304] | – | – | No phytotoxicity was observed | – |
| Clc1ncnc(N2CCC=N2)c1Cc1ccccc1 [Compound 1-42] | – | – | No phytotoxicity was observed | – |
| Fc1cc(F)cc(Cc2c(Cl)ncnc2N2CCCC2)c1 [Compound 1-87] | No phytotoxicity was observed | No phytotoxicity was observed | – | – |
| CC(C)(C)c1nc(Cl)c(Cc2ccccc2)c(N2CCCC2)n1 [Compound 1-121] | – | – | No phytotoxicity was observed | – |
| Clc1ccccc1Cc1c(Cl)ncnc1N1CCCC1 [Compound 1-46] | No phytotoxicity was observed | – | No phytotoxicity was observed | – |
| CC(c1ccccc1)c1c(Cl)ncnc1N1CCCC1 (racemic) [Compound 1-6] | No phytotoxicity was observed | – | – | – |
| CC1C=CC(C)N1c1ncnc(Cl)c1Cc1ccccc1 (stereo not shown) [Compound 1-36] | – | No phytotoxicity was observed | No phytotoxicity was observed | – |
| CC1CCCN1c1ncnc(Cl)c1Cc1cc(F)cc(F)c1 (stereo not shown) [Compound 1-17] | No phytotoxicity was observed | No phytotoxicity was observed | – | – |
| Clc1nc(-n2cncn2)nc(N2CCCC2)c1Cc1ccccc1 [Compound 1-435] | – | – | No phytotoxicity was observed | – |
| CC1CCCN1c1ncnc(Cl)c1Cc1ccccc1 (stereo not shown) [Compound 1-11] | No phytotoxicity was observed | No phytotoxicity was observed | – | – |
| OC[C@H]1CCCN1c1ncnc(Cl)c1Cc1ccccc1 [Compound 1-22] | – | No phytotoxicity was observed | – | – |
| CC1CCCN1c1ncnc(Cl)c1Cc1cccc(F)c1 (stereo not shown) [Compound 1-14] | No phytotoxicity was observed | No phytotoxicity was observed | No phytotoxicity was observed | – |
| CC1CCCN1c1ncnc(Cl)c1Cc1cccc(Cl)c1 (stereo not shown) [Compound 1-15] | No phytotoxicity was observed | No phytotoxicity was observed | – | – |
| Fc1ccccc1Cc1c(Cl)ncnc1N1CCCC1 [Compound 1-45] | – | No phytotoxicity was observed | – | – |
| Clc1cccc(Cc2c(Cl)ncnc2N2CCSC2)c1 [Compound 1-41] | – | – | No phytotoxicity was observed | – |
| Cc1cc(C)n(-c2nc(C)nc(Cl)c2Cc2ccccc2)n1 [Compound 1-523] | – | – | No phytotoxicity was observed | – |
| CSc1nc(Cl)c(Cc2ccccc2)c(N2CCCC2)n1 [Compound 1-165, 5-benzyl-4-chloro-2-methylthio-6-pyrrolidin-1-yl-pyrimidine] | – | – | – | Phytotoxicity (Tomato (variety: REGINA)): No phytotoxicity was observed; melting point: 97 to 99 °C |
| COc1ncnc(N2CCCC2)c1Cc1cccc(F)c1 | – | – | – | melting point: 74 to 76 °C |
| Clc1ncnc(N2CCCC2)c1Cc1ccccc1 [Compound 1-5, 5-benzyl-4-chloro-6-pyrrolidin-1-yl-pyrimidine] | No phytotoxicity was observed | No phytotoxicity was observed | No phytotoxicity was observed | Phytotoxicity (Tomato (variety: REGINA)): No phytotoxicity was observed |
| Fc1cccc(Cc2cncnc2N2CCCC2)c1 [Compound 1-102, 5-(3-fluorobenzyl)-4-pyrrolidin-1-yl-pyrimidine] | – | No phytotoxicity was observed | No phytotoxicity was observed | melting point: 51 to 54 °C |

Source: patent publication US20070167421A1, “Pyrimidine derivatives and use thereof as agricultural and horticultural fungicides” (priority 2004, published 2007)
